Our source for the TGI values is PubChem BioAssay (NCI).

Among the test systems are LXFL 529 NSCLC; DMS 114 small cell lung; HOP-18 NSCLC; SNB-78 CNS; RXF-631 renal; P388 leukemia; SN12K1 renal; P388/ADR leukemia.
What all share (experiment): NCI tumour cell line growth inhibition, 48 h

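Tested at 5 concentrations; 48 h exposure; 96-well plates; endpoints linearly interpolated, else capped at highest concentration. TGI marks complete inhibition of growth.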

For the compound `O=C1NC2OC(C(O)CO)C(O)C2O1` (stereo not given), the TGI in the assay with LXFL 529 NSCLC, with DMS 114 small cell lung and with HOP-18 NSCLC was over 100 µM throughout.
As to `O=C1CSC(/C(=N/Nc2ccccc2)c2nc3ccccc3[nH]2)=N1`, the TGI with LXFL 529 NSCLC, in the assay with DMS 114 small cell lung and in the assay on SNB-78 CNS was over 100 µM throughout.
Regarding `CSc1sc2ccccc2[s+]1`, the TGI with LXFL 529 NSCLC, with RXF-631 renal, with DMS 114 small cell lung and in the assay on HOP-18 NSCLC was over 100 µM throughout.
As for `Nc1ccn(C2OC(CO)C(O)C2O)c(=O)c1` (stereo not given), the TGI in the assay with P388 leukemia, in the assay on HOP-18 NSCLC, in the assay on SN12K1 renal and with SNB-78 CNS was over 625 µM throughout.
Take `OCc1ccc(C2CC(c3ccco3)=NN2c2ccccc2)o1` (stereo not given): the TGI in the assay with LXFL 529 NSCLC, with DMS 114 small cell lung and with SNB-78 CNS was over 100 µM throughout.
On to `COc1cc2c3c(c1OC)C1(C=CC(=O)C=C1)C[C@H]3N(C)CC2`, for which the TGI in the assay on LXFL 529 NSCLC, in the assay with RXF-631 renal, in the assay with DMS 114 small cell lung, in the assay on HOP-18 NSCLC and in the assay with SNB-78 CNS was over 100 µM each time.
For the compound `Cc1ccc(S(=O)(=O)C(C#N)c2nc3ccccc3nc2-n2ccnc2)cc1` (stereo not given), the TGI in the assay with LXFL 529 NSCLC, in the assay with DMS 114 small cell lung, in the assay on HOP-18 NSCLC and with SNB-78 CNS was over 100 µM throughout.
With `CC(=O)[C@@]1(O)CC[C@H]2[C@@H]3C[C@H](C)C4=CC(=O)C=C[C@]4(C)[C@@]3(F)[C@@H](O)C[C@@]21C`, the TGI in the assay on LXFL 529 NSCLC, in the assay on RXF-631 renal, in the assay with DMS 114 small cell lung and in the assay with SNB-78 CNS was over 100 µM each time.
Regarding `CCOC(=O)c1ccc(C)c(N=NN(C)C)c1`, the TGI in the assay on DMS 114 small cell lung and in the assay with HOP-18 NSCLC was over 100 µM in each case.
Consider `COc1ccc(C2COc3cc(O)c(O)cc3C2)cc1` (stereo not given), for which the TGI with P388 leukemia stood at 18.7 µM; in the assay on HOP-18 NSCLC it was 110 µM; in the assay on SN12K1 renal, 98.9 µM; in the assay on SNB-78 CNS, 268 µM; in the assay on P388/ADR leukemia, 8.53 µM.
As to `O=c1c(C(c2ccc(Cl)cc2)c2c(O)c3ccccc3n(-c3ccccc3)c2=O)c(O)c2ccccc2n1-c1ccccc1`, the TGI in the assay with LXFL 529 NSCLC, in the assay with RXF-631 renal, in the assay on DMS 114 small cell lung, with HOP-18 NSCLC and in the assay on SNB-78 CNS was over 100 µM throughout.
For `O=C(CN(c1ccccc1)c1ccccc1)n1nnc2ccccc21`, the results for the TGI in the assay with LXFL 529 NSCLC, in the assay with DMS 114 small cell lung and with SNB-78 CNS were over 100 µM, 85.7 µM and over 100 µM, respectively.
